Literature values in patent US9884129B2, “Release of agents from cells” (The Brigham and Women s Hospital, Inc., priority 2009, dated 2018).

Test system: tumor
Conditions: with neural stem cells modified to produce cytosine deaminase; systemic prodrug

SMILES: Nc1nc(=O)[nH]cc1F [5-fluorocytosine]
- reduction in tumor mass: 80%
